Test results reported in ChEMBL document CHEMBL1201862, “PubChem BioAssay data set” (2004).
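96-well plates; 48 h exposure; 5 concentrations. Endpoints by linear interpolation between flanking doses. Not reached: highest tested concentration assigned. At the GI50, growth is halved.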 Activity calls are given as the source filed them. Cut-off read from the data, not from the text of the source: active = GI50 up to about 1.1 µM and inactive = higher.

Legend:
Assay in all cases: inhibition of tumour cell growth, NCI panel, 48 h
[1] = test system: MOLT-4
[2] = test system: NCI-H522
[3] = test system: SK-MEL-5
[4] = test system: SK-MEL-2
[5] = test system: HCT-15
[6] = test system: HOP-92
[7] = test system: OVCAR-4
[8] = test system: ACHN
[9] = test system: SF-268
[10] = test system: Malme-3M
[11] = test system: SN12C
[12] = test system: HT-29
[13] = test system: SF-295
[14] = test system: UACC-62
[15] = test system: SK-OV-3
[16] = test system: UACC-257
[17] = test system: SK-MEL-28
[18] = test system: NCI-H226
[19] = test system: DU-145
[20] = test system: 786-0

Row | SMILES | GI50 [1] | GI50 [2] | GI50 [3] | GI50 [4] | GI50 [5] | GI50 [6] | GI50 [7] | GI50 [8] | GI50 [9] | GI50 [10] | GI50 [11] | GI50 [12] | GI50 [13] | GI50 [14] | GI50 [15] | GI50 [16] | GI50 [17] | GI50 [18] | GI50 [19] | GI50 [20]
1 | COc1ccc2c(c1)CCCc1c-2nc2ccccc2c1N | 8.59 µM (inactive) | 13.6 µM (inactive) | 3.72 µM (inactive) | 15.7 µM (inactive) | 12.5 µM | 5.73 µM (inactive) | 12.6 µM (inactive) | 13.6 µM (inactive) | 15.3 µM (inactive) | 14.1 µM (inactive) | 4.38 µM (inactive) | 3.3 µM (inactive) | 11.1 µM (inactive) | 12.3 µM (inactive) | 10.4 µM (inactive) | 2.45 µM (inactive) | 10.8 µM (inactive) | 13.8 µM (inactive) | 13.4 µM (inactive) | 6.11 µM (inactive)
2 | CCCCCCCCCCCCCCCCOCC(O)CO (stereo not given) | 13.3 µM (inactive) | 16.8 µM (inactive) | 27.5 µM (inactive) | 20.6 µM (inactive) | 18.7 µM | 21 µM (inactive) | 21 µM (inactive) | 18.8 µM (inactive) | 17.1 µM (inactive) | 19.2 µM (inactive) | 19.2 µM (inactive) | 17.3 µM (inactive) | 16.4 µM (inactive) | 17 µM (inactive) | 16.6 µM (inactive) | 19.1 µM (inactive) | 18.6 µM (inactive) | 18.7 µM (inactive) | 18.9 µM (inactive) | 18.4 µM (inactive)
3 | Cc1c(CNc2ccc(C(=O)NC(CCCNC(=O)c3ccccc3C(=O)O)C(=O)O)cc2)cnc2nc(N)nc(N)c12 (stereo not given) | 0.000566 µM (active) | 0.00151 µM (active) | 0.000644 µM (active) | 1.22 µM (inactive) | 0.000453 µM | 2.09 µM (inactive) | 1.55 µM (inactive) | 0.000393 µM (active) | 0.000356 µM (active) | 0.468 µM (active) | 0.00466 µM (active) | 0.001 µM (active) | 0.000593 µM (active) | 0.000396 µM (active) | 0.00644 µM (active) | 0.785 µM (active) | 0.192 µM (active) | 0.000617 µM (active) | 0.00091 µM (active) | < 0.0001 µM (active)
4 | N=C(N)NS(=O)(=O)c1ccc(Nc2c3ccccc3nc3c(C(=O)NCCO)cccc23)cc1 | 0.0885 µM (active) | 0.158 µM (active) | 0.142 µM (active) | 0.199 µM (active) | 0.236 µM | 0.192 µM (active) | 0.261 µM (active) | 0.219 µM (active) | 0.171 µM (active) | 0.156 µM (active) | 0.202 µM (active) | 0.16 µM (active) | 0.263 µM (active) | 0.167 µM (active) | 0.236 µM (active) | 0.243 µM (active) | 0.248 µM (active) | 0.142 µM (active) | 0.214 µM (active) | 0.191 µM (active)
5 | Brc1sc(Br)c2c1[C@H](Br)C[C@@H]2Br | 8.97 µM (inactive) | 16.3 µM (inactive) | 57.1 µM (inactive) | 24.6 µM (inactive) | 28.4 µM | 21.5 µM (inactive) | 23.5 µM (inactive) | 32.8 µM (inactive) | 20.7 µM (inactive) | 23.9 µM (inactive) | 31.1 µM (inactive) | > 100 µM (inactive) | > 10 µM (inactive) | 31.3 µM (inactive) | 59.8 µM (inactive) | 40.2 µM (inactive) | 28 µM (inactive) | 23.1 µM (inactive) | 24.3 µM (inactive) | 29.9 µM (inactive)
6 | CC(=O)c1cc(I)c(O)c2ncccc12 | 2.42 µM (inactive) | 3.6 µM (inactive) | 2.29 µM (inactive) | 6.35 µM (inactive) | 5.13 µM | 2.07 µM (inactive) | 2.94 µM (inactive) | 2.43 µM (inactive) | 3.22 µM (inactive) | 3.45 µM (inactive) | 3.69 µM (inactive) | 4.42 µM (inactive) | 4.07 µM (inactive) | 3.3 µM (inactive) | 4.27 µM (inactive) | 2.66 µM (inactive) | 4.09 µM (inactive) | 2.33 µM (inactive) | 3.3 µM (inactive) | 3.03 µM (inactive)
7 | Cc1ccc(S(=O)(=O)N/N=C2/C3CCC(C3)C2c2ccccc2)cc1 (stereo not given) | > 100 µM (inactive) | > 100 µM (inactive) | > 100 µM (inactive) | > 100 µM (inactive) | > 100 µM | > 100 µM (inactive) | > 100 µM (inactive) | > 100 µM (inactive) | > 100 µM (inactive) | > 100 µM (inactive) | > 100 µM (inactive) | > 100 µM (inactive) | > 100 µM (inactive) | > 100 µM (inactive) | > 100 µM (inactive) | > 100 µM (inactive) | > 100 µM (inactive) | > 100 µM (inactive) | > 100 µM (inactive) | > 100 µM (inactive)
